Source: patent publication US20150284331A1 (priority 2012, published 2015)
Positions count from the first letter of the chain named. Where two headings read alike, the source gives them in different places.

How the values were obtained:
acetylcholinesterase = molecular target: T1, acetylcholinesterase (Rattus norvegicus, UniProt P37136); assay: biochemical; type: biochemical; conditions: rat cortex enzyme
T1 construct: Acetylcholinesterase: rat cortex; from tissue; host or cells: rat cortex
T1 sequence (P37136 32-614): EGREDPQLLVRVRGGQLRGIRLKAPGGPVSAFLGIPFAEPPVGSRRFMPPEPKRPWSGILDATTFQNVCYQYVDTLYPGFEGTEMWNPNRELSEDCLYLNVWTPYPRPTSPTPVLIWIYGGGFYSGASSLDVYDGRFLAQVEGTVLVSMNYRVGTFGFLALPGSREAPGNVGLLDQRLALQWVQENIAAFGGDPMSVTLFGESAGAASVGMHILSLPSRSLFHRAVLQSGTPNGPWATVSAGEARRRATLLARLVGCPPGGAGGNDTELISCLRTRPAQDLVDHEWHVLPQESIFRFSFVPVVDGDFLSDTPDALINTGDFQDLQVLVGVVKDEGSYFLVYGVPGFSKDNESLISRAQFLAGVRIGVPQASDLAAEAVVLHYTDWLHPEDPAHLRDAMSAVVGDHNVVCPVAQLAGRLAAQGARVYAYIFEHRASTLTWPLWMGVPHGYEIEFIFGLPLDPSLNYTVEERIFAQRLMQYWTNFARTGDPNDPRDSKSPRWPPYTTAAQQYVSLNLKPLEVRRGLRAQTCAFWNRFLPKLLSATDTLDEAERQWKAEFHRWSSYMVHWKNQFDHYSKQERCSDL
Method: (§1) Sample processing: All samples were formulated as 10-2 mol/L solution by using 100% DMSO. 10-2 mol/L solution was used in microdetermination. 1 μL was taken to use in single tube experiment.
(§2) Solvent control: 0.4% DMSO was used in microdetermination. The inhibition ratio of the sample was obtained wherein the effect of solvent was deducted.
Acetylcholinesterase: rat cortex

butyrylcholinesterase = molecular target: T2, butyrylcholinesterase (Rattus norvegicus, UniProt Q9JKC1); assay: inhibition of butyrylcholinesterase (rat serum); type: biochemical; conditions: rat serum enzyme; final concentration 4×10−5 mol/L
T2 construct: Butyrylcholinesterase: rat serum; from tissue; host or cells: rat serum
T2 sequence (Q9JKC1 24-597): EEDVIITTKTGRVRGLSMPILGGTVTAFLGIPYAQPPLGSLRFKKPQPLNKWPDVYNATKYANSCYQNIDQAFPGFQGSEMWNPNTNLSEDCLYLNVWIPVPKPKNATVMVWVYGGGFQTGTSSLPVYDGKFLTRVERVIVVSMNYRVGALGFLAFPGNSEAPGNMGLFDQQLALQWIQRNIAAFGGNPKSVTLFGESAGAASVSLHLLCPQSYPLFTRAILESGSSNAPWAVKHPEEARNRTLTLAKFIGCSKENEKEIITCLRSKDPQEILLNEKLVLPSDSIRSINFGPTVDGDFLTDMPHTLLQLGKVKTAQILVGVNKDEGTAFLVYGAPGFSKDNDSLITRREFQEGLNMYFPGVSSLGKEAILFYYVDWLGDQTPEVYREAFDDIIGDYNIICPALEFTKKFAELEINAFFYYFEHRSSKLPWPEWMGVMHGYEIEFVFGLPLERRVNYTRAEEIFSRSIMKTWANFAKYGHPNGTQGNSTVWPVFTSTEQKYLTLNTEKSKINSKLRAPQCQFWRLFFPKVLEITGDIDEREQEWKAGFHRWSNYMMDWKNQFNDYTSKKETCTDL
Method: as §1, §2
Butyrylcholinesterase: rat serum

KM mice = assay: acute toxicities of compounds on mice; type: in vivo; conditions: 100 mg/kg oral
Method: Sample processing: When getting samples, they were undissolved. […] The samples were suspensions. Experimental animals: KM mice, 22-29 g, half male and half female.
Experimental method: Mice were randomly divided into groups. 100 mg/kg of test compounds DC19 and DC20 were administered orally, respectively.

[1] = molecular target: T3, cortex and hippocampus acetylcholinesterase of mice (Mus musculus, UniProt P21836); type: in vivo; conditions: for Acetylcholinesterase activity (%) cortex / Acetylcholinesterase activity (%) hippocampus: 1 h, % of solvent control, Mean ± SEM
T3 construct: from tissue; host or cells: mouse cortex and hippocampus homogenate
T3 sequence (P21836 32-614): T1 sequence (P37136 32-614) with I59V, T109A, S128A, T144A, S271A, D313E, A392T, V467T, Q478K, R499Q
Method: 5% DMSO was added and shaken sufficiently to dissolve the samples. Then 1% cosolvent EL (polyoxyethylated castor oil) was added and water was used to make up the remaining volumn to obtain 10 mg/mL sample. The samples were diluted gradually to 0.3 mg/mL, 1 mg/mL and 3 mg/mL. […] The samples were administrated orally according to 0.1˜mL/10 g of volumn to weight ratio. An equal amount of 5% DMSO and 1% EL solution was administered orally to the solvent control group.
(1) Acetylcholinesterase: mouse cortex and hippocampus. 1 h after orally administrated, the mice were decapitated. After the brains were taken out, the hippocampus and cortex were quickly stripped on the ice. To the cortex was added ice-cold 75 mM PBS, and homogenated to form 30× tissue homogenate and to the hippocampus was added ice-cold 75 mM PBS and homogenated to form 40× tissue homogenate. And finally 1/10 by volumn of OMPA was added and placed on the ice to be tested.
(2) Test Method: To the samples were added a reaction system containing PBS, H2O, S-Ach and DTNB. Except for the blank tube, to the rest of the tubes were added an appropriate amount of enzyme. The reaction was carried out at room temperature for 20 minutes. SDS was added to each tube to quench the reaction. An appropriate amount of enzyme was added to the blank tube. Absorbance of each tube was determined by UV-visible spectrophotometer (OD440 nm).

SMILES: COc1cc2c(cc1OC)C(=O)C(CC1(F)CCN(Cc3ccccc3F)CC1)C2 (stereo not shown) [DC20, 2-((4-fluoro-1-(2-fluorobenzyl)piperidin-4-yl)methyl)-5,6-dimethoxy-2,3-dihydro-1H-inden-1-one]
- acetylcholinesterase inhibitory activity inhibition ratio (%) (acetylcholinesterase; final concentration 4×10−5 mol/L): 82.04%
- IC50 (acetylcholinesterase; read-out: acetylcholinesterase inhibitory activity IC50 (nmol)): 860 pM
- butyrylcholinesterase inhibitory activity inhibition ratio (%) (butyrylcholinesterase): 71.58%
- response symptoms (KM mice; female KM mouse): 8 min, myasthenia, lacrimal
- response symptoms (KM mice; male KM mouse): 6 min, myasthenia, reduction in
- time of death after administration (KM mice; male KM mouse): secretion, immobility; 24 h,
- inhibition of cortex acetylcholinesterase compared with the solvent control group ([1]; 0.3 mg/kg oral): 14.67%
- inhibition of hippocampus acetylcholinesterase compared with the solvent control group ([1]; 0.3 mg/kg oral): 15.47%
- Acetylcholinesterase activity (%) cortex ([1]; 0.3 mg/kg oral): 85.33%
- Acetylcholinesterase activity (%) hippocampus ([1]; 0.3 mg/kg oral): 84.53%
- inhibition effects on mouse cortex and hippocampus AChE compared with Donepezil ([1]; 1 mg/kg of DC20 versus 10 mg/kg Donepezil): comparable to those of 10 mg/kg of positive control drug Donepezil
- inhibition of cortex acetylcholinesterase compared with the solvent control group ([1]; 1 mg/kg oral): 22.02%
- inhibition of hippocampus acetylcholinesterase compared with the solvent control group ([1]; 1 mg/kg oral): 19.76%
- Acetylcholinesterase activity (%) cortex ([1]; 1 mg/kg oral): 77.98%
- Acetylcholinesterase activity (%) hippocampus ([1]; 1 mg/kg oral): 80.24%
- inhibition effects on mouse cortex and hippocampus acetylcholinesterase (in words) ([1]; 1 mg/kg, 3 mg/kg and 10 mg/kg oral): significant inhibition effects
- inhibition of cortex acetylcholinesterase compared with the solvent control group ([1]; 3 mg/kg oral): 42.95%
- inhibition of hippocampus acetylcholinesterase compared with the solvent control group ([1]; 3 mg/kg oral): 50.12%
- Acetylcholinesterase activity (%) cortex ([1]; 3 mg/kg oral): 57.05%
- Acetylcholinesterase activity (%) hippocampus ([1]; 3 mg/kg oral): 49.88%
- inhibition of cortex acetylcholinesterase compared with the solvent control group ([1]; 10 mg/kg oral): 66.02%
- inhibition of hippocampus acetylcholinesterase compared with the solvent control group ([1]; 10 mg/kg oral): 65.62%
- Acetylcholinesterase activity (%) cortex ([1]; 10 mg/kg oral): 33.98%
- Acetylcholinesterase activity (%) hippocampus ([1]; 10 mg/kg oral): 34.38%
- overall activity compared with Donepezil ([1]; mouse cortex and hippocampus AChE, oral): better than that of Donepezil
